Measured values as given in patent US9296694B2, “Azacyclic compounds” (ACADIA Pharmaceuticals Inc., priority 2000, dated 2016).
Entries after “also recorded” stand apart in the source; their conditions may differ. Where a name gives a salt, the structure may show the parent alone.

What was measured:
[1] = tested on: DOI-induced head twitches in mice; assay: Observation for head twitches in DOI-treated mice; format: in vivo; details: for MED (minimum effective dose in vivo): statistically significant reduction in head twitching score, DOI-treated mice, 0.1-30 mg/kg subcutaneous injection
Excerpt: (§1) Instruments) were used for rat experiments (details on startle apparatus and measures, see Male Non-Swiss Albino mice and male Sprague-Dawley rats (Harlan Sprague-Dawley) were housed (4 mice/cage; 2 rats/cage) in rooms with temperature and humidity controlled and water and food (Harlan Teklad) freely available. Mice were kept on a 12-hr light:dark cycle, whereas rats were kept on a 12-hr reverse light:dark cycle. For locomotor and observation experiments in mice, plastic 20×20×30 cm activity cages were equipped with photocell beams (AccuScan Instruments). Startle chambers (San Diego Instruments) were used for rat experiments (for details on startle apparatus and measures, see Mansbach et al., (1988) Psychopharmacology 94:507-14).
Mice were treated with 2.5 mg/kg DOI i.p. Five min later, mice were treated with AC-90179 s.c. and placed into activity cages. Ten min later, mice were observed using a repeated sampling technique. […] Each dose combination was tested in a separate group of animals (n=8) and the experimenter was blind to drug conditions. Head twitch scores were averaged followed by analysis of variance (ANOVA) and post-hoc Dunnett's t-test comparisons.
The effect of various compounds on head twitch behavior in mice treated with DOI was observed as described in Example 139. Animals received 0.1-30 mg/kg of the compound indicated via subcutaneous injection. MED indicates the minimum effective dose at which a statistically significant reduction in head twitching score (described above) was observed. MED=minimum effective dose in vivo.

[2] = molecular target: T1, 5-HT2A receptor (Homo sapiens, UniProt P28223); assay: Receptor Selection and Amplification (R-SAT) assay, 5-HT2A inverse agonism; format: cell-based; details: for Percent Efficacy: compared to ritanserin
T1 construct: expressed in transfected cells; host or cells: NIH3T3 (mouse fibroblasts), pSI expression vector
T1 sequence (P28223 whole entry): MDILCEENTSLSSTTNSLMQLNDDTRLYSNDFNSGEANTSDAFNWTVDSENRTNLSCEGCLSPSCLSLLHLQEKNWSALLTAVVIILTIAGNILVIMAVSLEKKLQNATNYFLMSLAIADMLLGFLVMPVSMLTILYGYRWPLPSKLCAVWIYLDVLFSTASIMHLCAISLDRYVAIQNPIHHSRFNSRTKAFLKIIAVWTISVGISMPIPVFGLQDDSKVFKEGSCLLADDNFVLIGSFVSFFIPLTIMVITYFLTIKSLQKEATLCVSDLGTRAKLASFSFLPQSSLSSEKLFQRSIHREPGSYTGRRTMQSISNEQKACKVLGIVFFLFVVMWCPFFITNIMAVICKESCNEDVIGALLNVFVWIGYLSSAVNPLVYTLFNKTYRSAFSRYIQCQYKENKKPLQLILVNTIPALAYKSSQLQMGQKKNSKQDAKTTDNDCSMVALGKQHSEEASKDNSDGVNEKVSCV
Method: Briefly, NIH3T3 cells were grown in 96 well tissue culture plates to 70-80% confluence. Cells were transfected for 12-16 hours with plasmid DNAs using superfect (Qiagen Inc.) as per manufacture's protocols. R-SAT's were generally performed with 50 ng/well of receptor and 20 ng/well of Beta-galactosidase plasmid DNA. […] Large-scale transfections, cells were transfected for 12-16 hours, then trypsinized and frozen in DMSO. Frozen cells were later thawed, plated at 10,000-40,000 cells per well of a 96 well plate that contained drug. With both methods, cells were then grown in a humidified atmosphere with 5% ambient CO2 for five days. Media was then removed from the plates and marker gene activity was measured by the addition of the beta-galactosidase substrate ONPG (in PBS with 5% NP-40). […] All data were analyzed using the computer program XLFit (IDBSm).

[3] = tested on: locomotor activity of mice (dizocilpine- or d-amphetamine-induced hyperactivity, spontaneous activity); assay: Locomotor activity in mice; format: in vivo; details: for distance traveled (average): i.p., 15 min
Excerpt: as §1
For hyperactivity experiments, mice were treated with 0.3 mg/kg dizocilpine or 3.0 mg/kg d-amphetamine i.p. 15 min before the session. Five minutes after the pretreatment, mice were treated with AC-90179 s.c. and placed into the activity cages. For spontaneous activity, AC-90179 was administered alone. Locomotor data were collected during a 15 min session without habituation in a lit room. Each dose combination was tested in a separate group of animals (n=8). Distance traveled (cm) was calculated and averaged followed by ANOVA and post-hoc Dunnett's t-test comparisons.

[4] = tested on: acoustic startle and prepulse inhibition in rats; assay: Startle testing, prepulse inhibition (PPI) in rats; format: in vivo
Excerpt: as §1
Rats were tested and groups (n=10) matched for levels of startle reactivity and prepulse inhibition (PPI; see Mansbach et al., (1988) Psychopharmacology 94:507-14). Two days later, test sessions started and consisted of a 5-min acclimation period with a constant background noise (65 dB), followed by 60 presentations of acoustic stimuli to measure acoustic startle responses. The 60 trials consisted of: twenty two 40-ms presentations of a 120 dB broadband pulse, ten 20-ms presentations of each prepulse intensity (68, 71, 77 dB) 100 ms prior to a 40-msec presentation of a 120 dB broadband pulse, and 8 NOSTIM trials in which no stimuli were delivered in order to assess general motor activation in the rats. Thirty min before testing, rats were treated with sterile water (s.c.), risperidone (1.0 mg/kg, i.p.), or AC-90179 (s.c.). Five min later, rats were administered DOI (0.5 mg/kg, s.c.) or 0.9% saline (s.c.). One-week later, rats were administered the same pretreatment drug or vehicle and crossed over to receive the treatment opposite to that they received the previous week. Startle magnitudes and percent PPI for the three prepulse intensities were calculated as described elsewhere (Bakshi, et al., (1994) J. Pharmacol. Exp. Ther. 271:787-94) and ANOVAs with repeated measures performed.

[5] = mice, DOI 2.5 mg/kg i.p., 0.1-30 mg/kg, s.c., 10 min

For `COc1ccc(CC(=O)N(Cc2ccc(Cl)cc2)C2CCN(C(C)C)CC2)cc1` [Compound 42ELH79, 2-(4-Methoxyphenyl)-N-(4-chlorbenzyl)-N-(1-isopropylpiperidin-4-yl) acetamide], the “MED (minimum effective dose in vivo)” value [1] was “≦10 mg/kg”, the pIC50 ([2]; Table 4 of Example 137) was 8.5 and the “Percent Efficacy” value ([2]; Table 4 of Example 137) was 110%.

In the case of `CCN1CCC(N(Cc2ccc(Cl)cc2)C(=O)Cc2ccc(OC)cc2)CC1` [Compound 42ELH85, 2-(4-Methoxyphenyl)-N-(4-chlorbenzyl)-N-(1-ethylpiperidin-4-yl)acetamide], the “MED (minimum effective dose in vivo)” value [1] is reported as “≦10 mg/kg” and the “Percent Efficacy” value ([2]; Table 4 of Example 137) is reported as 118%.

`COc1ccc(CC(=O)N(Cc2ccc(Cl)cc2)C2CCN(C3CCCC3)CC2)cc1` [Compound 42ELH91, 2-(4-Methoxyphenyl)-N-(4-chlorbenzyl)-N-(1-cyclopentylpiperidin-4-yl)acetamide] was tested, and the “MED (minimum effective dose in vivo)” value [1] was >10 mg/kg and the “Percent Efficacy” value ([2]; Table 4 of Example 137) was 108%.

With `COc1ccc(CC(=O)N(Cc2ccc(C)cc2)C2CCN(C)CC2)cc1` [Compound 50ELH27, 2-(4-Methoxyphenyl)-N-(4-methylbenzyl)-N-(1-methylpiperidin-4-yl)acetamide] the “effect on hyperactivity induced by dizocilpine” value ([3]; 0.3-10 mg/kg, s.c., 10 min, dizocilpine 0.3 mg/kg i.p.) was “attenuated”, the “dose that reduced spontaneous locomotor activity” value ([3]; compound alone, s.c., only at the highest dose tested) was 30 mg/kg and the “minimum effective dose against dizocilpine” value ([3]; hyperactivity induced by dizocilpine 0.3 mg/kg i.p., s.c.) was 1 mg/kg. The “effect on startle magnitude” value ([4]; rats, 3-way repeated measures ANOVA) was “significant effect of pretreatment”, the “restoration of PPI in DOI-treated rats” value ([4]; rats, DOI 0.5 mg/kg s.c., AC-90179 s.c., risperidone 1.0 mg/kg i.p.) was “effective in restoring this disruption especially at the higher doses; also recorded: significant effects” and the “effect on PPI on its own” value ([4]; saline (vehicle)-treated rats, AC-90179 s.c., risperidone 1.0 mg/kg i.p.) was “did not affect PPI on its own; also recorded: no effect”. The “effect on DOI-induced head-twitches” value [1, 5] was “dose-related decrease”, the “minimum effective dose against DOI-induced head-twitches” value [1, 5] was 1 mg/kg and the “effect on head twitch behavior at higher doses” value ([1]; mice, DOI 2.5 mg/kg i.p., higher doses, s.c.) was “completely eliminating head twitch behavior”. The “MED (minimum effective dose in vivo)” value [1] was 1 mg/kg.

With `Cc1ccc(CN(C(=O)Cc2ccc(N(C)C)cc2)C2CCN(C)CC2)cc1` [Compound 57MBT70-6D, N-((4-methylphenyl)methyl)-N-(1-methylpiperidin-4-yl)-2-(4-(N,N-dimethylamino)phenyl)acetamide hydrochloride] the IC50 ([2]; Table 4 of Example 137) was 10 nM.

With `C[C@]12N[C@H](Cc3ccccc31)c1ccccc12` [Dizocilpine, dizocilpine, reference compound] the “distance traveled (average)” value ([3]; 0.3 mg/kg) was 2625 cm.

With `C[C@H](N)Cc1ccccc1` [d-amphetamine, reference compound] the “distance traveled (average)” value ([3]; 3.0 mg/kg) was 3367 cm.

With “N-(2-Phenylethyl)-N-(piperidin-4-yl)-4-methoxyphenylmethylacetamide [Compound 26HCH80-2]” the “pIC50 (average)” value ([2]; Table 1) was 7.78 and the “Efficacy (average)” value ([2]; percent maximal repression compared to ritanserin, Table 1) was 89%.
